pIC50: −log10 of the molar value.
Test system: 636577-100-R-J1-PDC complex spheroid viability
Assay: Anticancer human tumor 636577-100-R-J1-PDC patient-derived endometrial adenocarcinoma cell line growth inhibition [GQUAD]
Conditions: for pIC50: curve of first compound; for viability, T/C: stronger effect = lower value
In short: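 Viability of tumor cells grown as complex spheroids with endothelial and stromal cells, exposed to drug combinations. Top concentration at or near clinical Cmax (else 10 microM), diluted in half-log increments.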

[1] = second compound 0.0316 µM, first compound 0.0316 µM
[2] = second compound 0.0316 µM, first compound 0.1 µM
[3] = second compound 0.0316 µM, first compound 0.316 µM
[4] = second compound 0.0316 µM, first compound 1 µM
[5] = second compound 0.0316 µM, first compound 3.16 µM
[6] = second compound 0.0316 µM, first compound 10 µM
[7] = second compound 0.1 µM, first compound 0.0316 µM
[8] = second compound 0.1 µM, first compound 0.1 µM
[9] = second compound 0.1 µM, first compound 0.316 µM
[10] = second compound 0.1 µM, first compound 1 µM
[11] = second compound 0.1 µM, first compound 3.16 µM
[12] = second compound 0.1 µM, first compound 10 µM
[13] = second compound 0.316 µM, first compound 0.0316 µM
[14] = second compound 0.316 µM, first compound 0.1 µM
[15] = second compound 0.316 µM, first compound 0.316 µM
[16] = second compound 0.316 µM, first compound 1 µM
[17] = second compound 0.316 µM, first compound 3.16 µM
[18] = second compound 0.316 µM, first compound 10 µM
[19] = second compound 1 µM, first compound 0.0316 µM
[20] = second compound 1 µM, first compound 0.1 µM
[21] = second compound 1 µM, first compound 0.316 µM
[22] = second compound 1 µM, first compound 1 µM
[23] = second compound 1 µM, first compound 3.16 µM
[24] = second compound 1 µM, first compound 10 µM
[25] = second compound 3.16 µM, first compound 0.0316 µM
[26] = second compound 3.16 µM, first compound 0.1 µM
[27] = second compound 3.16 µM, first compound 0.316 µM
[28] = second compound 3.16 µM, first compound 1 µM
[29] = second compound 3.16 µM, first compound 3.16 µM
[30] = second compound 3.16 µM, first compound 10 µM
[31] = second compound 10 µM, first compound 0.0316 µM
[32] = second compound 10 µM, first compound 0.1 µM
[33] = second compound 10 µM, first compound 0.316 µM
[34] = second compound 10 µM, first compound 1 µM
[35] = second compound 10 µM, first compound 3.16 µM
[36] = second compound 10 µM, first compound 10 µM
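Note: viability read after seven days of drug exposure.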
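Throughout, for viability, T/C: luminescence signal used as a proxy for viable cells; 100% = DMSO vehicle control wells.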

CC(=O)O[C@H]1C(=O)[C@@]2(C)[C@H]([C@H](OC(=O)c3ccccc3)[C@]3(O)C[C@H](OC(=O)[C@H](O)[C@@H](NC(=O)c4ccccc4)c4ccccc4)C(C)=C1C3(C)C)[C@]1(OC(C)=O)CO[C@@H]1C[C@@H]2O + Cc1cnc(CNC(=O)c2c(=O)c3ccc(N4CCCN(C)CC4)nc3n3c2sc2ccccc23)cn1
pIC50 (second compound 0.0316 µM): > 7.50 | pIC50 (second compound 0.1 µM): > 7.50 | pIC50 (second compound 0.316 µM): > 7.50 | pIC50 (second compound 1 µM): > 7.50 | pIC50 (second compound 3.16 µM): > 7.50 | pIC50 (second compound 10 µM): > 7.50 | viability, T/C [1]: 22.4% | viability, T/C [2]: 13.4% | viability, T/C [3]: 13% | viability, T/C [4]: 10.6% | viability, T/C [5]: 9.54% | viability, T/C [6]: 9.18% | viability, T/C [7]: 23.1% | viability, T/C [8]: 16.2% | viability, T/C [9]: 14.3% | viability, T/C [10]: 10.2% | viability, T/C [11]: 12.1% | viability, T/C [12]: 10.1% | viability, T/C [13]: 23.6% | viability, T/C [14]: 18% | viability, T/C [15]: 13.9% | viability, T/C [16]: 12.5% | viability, T/C [17]: 11.2% | viability, T/C [18]: 10.7% | viability, T/C [19]: 21.2% | viability, T/C [20]: 16.5% | viability, T/C [21]: 15% | viability, T/C [22]: 14.2% | viability, T/C [23]: 13.2% | viability, T/C [24]: 10.7% | viability, T/C [25]: 19.6% | viability, T/C [26]: 18.2% | viability, T/C [27]: 17.2% | viability, T/C [28]: 14.3% | viability, T/C [29]: 15.7% | viability, T/C [30]: 14.3% | viability, T/C [31]: 18.1% | viability, T/C [32]: 18.5% | viability, T/C [33]: 17.8% | viability, T/C [34]: 15.3% | viability, T/C [35]: 15.2% | viability, T/C [36]: 15.3%

CC[C@@]1(O)C(=O)OCc2c1cc1n(c2=O)Cc2cc3c(CN(C)C)c(O)ccc3nc2-1 + CN(C)c1ccc(Nc2c3ccc(NC(=O)CCN4CCCC4)cc3nc3cc(NC(=O)CCN4CCCC4)ccc23)cc1
pIC50 (second compound 0.0316 µM): 7.73 | pIC50 (second compound 0.1 µM): 7.73 | pIC50 (second compound 0.316 µM): 7.73 | pIC50 (second compound 1 µM): 7.93 | pIC50 (second compound 3.16 µM): > 9.00 | pIC50 (second compound 10 µM): > 9.00 | viability, T/C (second compound 0.0316 µM, first compound 0.000999 µM): 108% | viability, T/C (second compound 0.0316 µM, first compound 0.00316 µM): 75.3% | viability, T/C (second compound 0.0316 µM, first compound 0.00999 µM): 72.1% | viability, T/C [1]: 37.2% | viability, T/C (second compound 0.0316 µM, first compound 0.0999 µM): 21.1% | viability, T/C [3]: 27.1% | viability, T/C (second compound 0.1 µM, first compound 0.000999 µM): 88.6% | viability, T/C (second compound 0.1 µM, first compound 0.00316 µM): 74.7% | viability, T/C (second compound 0.1 µM, first compound 0.00999 µM): 74.2% | viability, T/C [7]: 29.5% | viability, T/C (second compound 0.1 µM, first compound 0.0999 µM): 22.3% | viability, T/C [9]: 23.6% | viability, T/C (second compound 0.316 µM, first compound 0.000999 µM): 77.8% | viability, T/C (second compound 0.316 µM, first compound 0.00316 µM): 65.9% | viability, T/C (second compound 0.316 µM, first compound 0.00999 µM): 62.7% | viability, T/C [13]: 41.5% | viability, T/C (second compound 0.316 µM, first compound 0.0999 µM): 22% | viability, T/C [15]: 23.9% | viability, T/C (second compound 1 µM, first compound 0.000999 µM): 64.3% | viability, T/C (second compound 1 µM, first compound 0.00316 µM): 96.1% | viability, T/C (second compound 1 µM, first compound 0.00999 µM): 54% | viability, T/C [19]: 30.4% | viability, T/C (second compound 1 µM, first compound 0.0999 µM): 24.4% | viability, T/C [21]: 22.7% | viability, T/C (second compound 3.16 µM, first compound 0.000999 µM): 34.8% | viability, T/C (second compound 3.16 µM, first compound 0.00316 µM): 45.4% | viability, T/C (second compound 3.16 µM, first compound 0.00999 µM): 37.6% | viability, T/C [25]: 26.2% | viability, T/C (second compound 3.16 µM, first compound 0.0999 µM): 21.2% | viability, T/C [27]: 20% | viability, T/C (second compound 10 µM, first compound 0.000999 µM): 6.05% | viability, T/C (second compound 10 µM, first compound 0.00316 µM): 6.87% | viability, T/C (second compound 10 µM, first compound 0.00999 µM): 5.66% | viability, T/C [31]: 4.71% | viability, T/C (second compound 10 µM, first compound 0.0999 µM): 5.96% | viability, T/C [33]: 4.24%

CC1COCCN1c1cc(C2(S(C)(=N)=O)CC2)nc(-c2ccnc3[nH]ccc23)n1 (stereo not drawn) + Cc1cnc(CNC(=O)c2c(=O)c3ccc(N4CCCN(C)CC4)nc3n3c2sc2ccccc23)cn1
pIC50 (second compound 0.0316 µM): 6.62 | pIC50 (second compound 0.1 µM): > 7.50 | pIC50 (second compound 0.316 µM): > 7.50 | pIC50 (second compound 1 µM): > 7.50 | pIC50 (second compound 3.16 µM): > 7.50 | pIC50 (second compound 10 µM): > 7.50 | viability, T/C [1]: 56.2% | viability, T/C [2]: 50% | viability, T/C [3]: 54.1% | viability, T/C [4]: 30.5% | viability, T/C [5]: 45.3% | viability, T/C [6]: 12.3% | viability, T/C [7]: 30.8% | viability, T/C [8]: 29.6% | viability, T/C [9]: 33.5% | viability, T/C [10]: 21.7% | viability, T/C [11]: 27.5% | viability, T/C [12]: 12.2% | viability, T/C [13]: 23.4% | viability, T/C [14]: 24.4% | viability, T/C [15]: 25.2% | viability, T/C [16]: 22% | viability, T/C [17]: 24.2% | viability, T/C [18]: 14.5% | viability, T/C [19]: 21.1% | viability, T/C [20]: 22.7% | viability, T/C [21]: 21.8% | viability, T/C [22]: 18.3% | viability, T/C [23]: 24.8% | viability, T/C [24]: 9.7% | viability, T/C [25]: 18.5% | viability, T/C [26]: 18.5% | viability, T/C [27]: 21.2% | viability, T/C [28]: 19.4% | viability, T/C [29]: 21.5% | viability, T/C [30]: 14.3% | viability, T/C [31]: 16.9% | viability, T/C [32]: 22.2% | viability, T/C [33]: 23.4% | viability, T/C [34]: 22.7% | viability, T/C [35]: 23% | viability, T/C [36]: 13.2%

CC(=O)O[C@H]1C(=O)[C@@]2(C)[C@H]([C@H](OC(=O)c3ccccc3)[C@]3(O)C[C@H](OC(=O)[C@H](O)[C@@H](NC(=O)c4ccccc4)c4ccccc4)C(C)=C1C3(C)C)[C@]1(OC(C)=O)CO[C@@H]1C[C@@H]2O + Cc1[nH]c2ccc(F)cc2c1-c1nc2c3cccnc3c3ncccc3c2[nH]1
pIC50 (second compound 0.0316 µM): > 7.50 | pIC50 (second compound 0.1 µM): > 7.50 | pIC50 (second compound 0.316 µM): > 7.50 | pIC50 (second compound 1 µM): > 7.50 | pIC50 (second compound 3.16 µM): > 7.50 | pIC50 (second compound 10 µM): > 7.50 | viability, T/C [1]: 16.9% | viability, T/C [2]: 14.4% | viability, T/C [3]: 13.5% | viability, T/C [4]: 12% | viability, T/C [5]: 11.2% | viability, T/C [6]: 11.2% | viability, T/C [7]: 15.5% | viability, T/C [8]: 13.5% | viability, T/C [9]: 10.8% | viability, T/C [10]: 9.49% | viability, T/C [11]: 11.1% | viability, T/C [12]: 9.8% | viability, T/C [13]: 17.3% | viability, T/C [14]: 13.2% | viability, T/C [15]: 11.6% | viability, T/C [16]: 10.4% | viability, T/C [17]: 9.79% | viability, T/C [18]: 11.4% | viability, T/C [19]: 16.5% | viability, T/C [20]: 12% | viability, T/C [21]: 12% | viability, T/C [22]: 12.1% | viability, T/C [23]: 10.9% | viability, T/C [24]: 11% | viability, T/C [25]: 15.3% | viability, T/C [26]: 11.7% | viability, T/C [27]: 13.8% | viability, T/C [28]: 12.5% | viability, T/C [29]: 10.7% | viability, T/C [30]: 8.71% | viability, T/C [31]: 15.6% | viability, T/C [32]: 13.5% | viability, T/C [33]: 10.5% | viability, T/C [34]: 11.4% | viability, T/C [35]: 12.7% | viability, T/C [36]: 12.6%

— PubChem BioAssay AID2060504 (Molecular Pharmacology Branch, DTP, NCI, 2025)
